Assay results as given in patent US20230165817A1, “DOPAMINERGIC MIMETICS” (TDELTAS LIMITED, priority 2004, published 2023).

Key:
[1] = test system: electrical power of four rat brain areas (frontal cortex, hippocampus, striatum, reticular formation); settings: literature (Dimpfel et al., 1987; Dimpfel, 2003); cited from earlier work
[2] = test system: electrical power of four rat brain areas (frontal cortex, hippocampus, striatum, reticular formation); test: EEG measurements (Tele-Stereo-EEG) in freely-moving rats after single intraperitoneal injection; format: in vivo, Fisher rats
Text: Analysis of brain field potentials (“Tele-Stereo-EEG”) has been proven to be a very sensitive tool for the characterization of drug effects on the central nervous system (Dimpfel et al., 1986). After administration of a centrally active drug, quantitative changes in the brain field potentials can be considered as a characteristic fingerprint of that particular drug. “Fingerprints” of more than 100 compounds have been obtained including 8 established drug categories, e.g. stimulants, sedatives, hallucinogenics, tranquilizers, analgesics, antidepressants, neuroleptics, and narcotics. Different dosages of the same drug cause quantitative changes in electrical power. […] Direct comparison with specific reference drugs, or by discriminant analysis with reference to an extensive fingerprint database, permits the detection of any possible similarities with established drugs. In general, “fingerprints” show prominent differences for drugs prescribed for different indications and are similar for drugs with similar indication (Dimpfel, 2003). Furthermore, the pattern of EEG changes in the rat is a useful tool in predicting possible changes in the EEG power spectrum in humans.
Adult Fisher rats (4-6 month of age and day-night converted, bodyweight approximately 400 g) were implanted with 4 bipolar concentric steel electrodes using a stereotaxic surgical procedure. According to the coordinates of Paxinos and Watson (1982), all four electrodes were placed 3 mm lateral within the left hemisphere. Anterior coordinates were 12.2, 5.7, 9.7 and 3.7 mm for frontal cortex, hippocampus, striatum and reticular formation, respectively. A baseplate carrying the electrodes and a 5-pin-plug was fixed to the skull by dental cement attached to 3 steel screws fixed into the skull. Animals were given two weeks for recovery from the surgical procedure.
EEG signals were recorded from frontal cortex, hippocampus, striatum and reticular formation and were amplified and processed as described by Dimpfel et al. (1986). After automatic artefact rejection, signals were collected in sweeps of 4 s duration and submitted to Fast Fourier transformation. The resulting electrical power spectra were divided into 6 frequency ranges: delta (0.8-4.5 Hz); theta (4.75-6.75 Hz); alpha1 (7.00-9.50 Hz); alpha2 (9.75-12.50 Hz); beta (12.75-18.50 Hz); beta2 (18.75-35.00 Hz). […] In an off-line procedure spectra were averaged to give 15 minute or longer periods for further statistical analysis.
Four doses of KTX 0101 (sodium (R)-3-hydroxybuytrate: 100, 300, 600 and 1000 mg/kg body weight) (supplied by Solvias AG, CH 4002 Basel, Switzerland, batch No: SO-1058.047.1.120) and a vehicle control (0.9% w/v saline) were administered intraperitoneally to a group of 12 animals using a crossover design with at least 3 drug holidays in between the applications. After a pre-drug period of 45 minutes for baseline recording, drug effects were observed continuously for 300 minutes. Changes of electrical power (μV2/W) are expressed as percentage of the 45 minute pre-drug values. Multivariate statistics were calculated according to Ahrens and Läuter (1974).

[3] = Plasma determination of (R)-3-hydroxybutyrate after intraperitoneal injection; format: in vivo, Sprague-Dawley rats; settings: rat
Procedure: (§1) One hundred and seventy-one male Sprague-Dawley rats (weight range 200-250 g) housed on a standard […] were used. Animals had free access to a standard pelleted rat diet and tap water at all times. KTX 0101 (sodium (R)-3-hydroxybuytrate; 100, 300, 600 and 1000 mg/kg body weight) supplied by Sigma (H6501, Lot 111K2618) was administered by intraperitoneal injection. Control animals received the appropriate 0.9% saline vehicle via the same route. Animals were killed by CO2 asphyxiation 0 h, 0.5 h, 1.0 h or 2.0 h after dosing and a terminal blood sample was collected by cardiac puncture. Blood was taken in lithium heparinised tubes and kept on ice prior to centrifugation to yield the plasma samples for analysis.
Commercial clinical assay kits for the determination of D-β-hydroxybutyrate were obtained from Randox Laboratories (Antrim, UK). The kit quantified NADH via the activity of β-hydroxybutyrate dehydrogenase measured as an increase in OD340 nm. An alkaline pH is necessary to drive the reaction equilibrium towards the production of NADH and acetoacetate.
This spectrophotometric assay was modified for application to a 96 well microplate format. The reaction rate was then determined from the increase in OD340 nm over a 1 minute time course, after allowing a necessary period for the reaction rate to settle.

[4] = Plasma determination of acetoacetate after intraperitoneal injection; format: in vivo, Sprague-Dawley rats; settings: 30 min after dosing, rat
Procedure: as §1
The assay developed for the determination of acetoacetate was based on previously published clinical assays (Li et al, 1980; McMurray et al, 1984). A different assay buffer was prepared (0.1M Na2PO4 adjusted to pH 7.0 with HCl) in order to shift the equilibrium of the reaction to production of β hydroxybutyrate and NAD+. Other modifications included the additional use of sodium oxalate at a final assay concentration of 20 mM to inhibit lactate dehydrogenase (LDH) present in the plasma samples. […]
Acetoacetate was measured via the reduction in OD340 nm over a 1 minute period after allowing for the reaction rate to settle.

## N[C@@H](Cc1ccc(O)c(O)c1)C(=O)O [L-DOPA]
[1]
  EEG frequency changes of drugs enhancing dopaminergic function: decrease delta, theta and alpha2 frequencies

## C[C@@H](O)CC(=O)[O-].[Na+] [KTX 0101, sodium (R)-3-hydroxybuytrate]
[2]; 100 mg/kg body weight ip, rat
  Duration of EEG effects: 1 to 2 h
  Statistical significance of EEG changes: not statistically significant
[2]; 100 mg/kg body weight ip, rat, vs pre-drug values
  Changes in EEG power spectrum (frequency changes): decrease of electrical power mainly with regard to alpha2
[2]; 300 mg/kg ip, rat
  Duration of EEG pattern of changes: 2 h
  Statistical significance of EEG changes: only statistically significant in the reticular formation
[2]; 300 mg/kg ip, rat, vs pre-drug values
  Changes in EEG power spectrum (frequency changes): decreases in alpha2 power throughout all brain regions
[2]; 600 mg/kg ip, rat, brain regions except reticular formation
  Duration of EEG effects: ~2 h
[2]; 600 mg/kg ip, rat, including first hour within striatum and all 24 variables
  Statistical significance of EEG changes: statistically significant
[2]; 600 mg/kg ip, rat, reticular formation
  Duration of decreases in EEG power in the reticular formation: persisted throughout the third hour
[2]; 1000 mg/kg ip, rat
  Changes in EEG power spectrum (frequency changes): identical pattern of change, but with more prominent decreases of power
  Duration of decreases of EEG power: lasting into the third hour
[2]; 1000 mg/kg ip, rat, even for the 4th hour within the reticular formation
  Statistical significance of EEG changes: statistically significant
[2]; 1000 mg/kg ip, rat, reticular formation, total experimental time
  Duration of decreases of EEG power in the reticular formation: 5 h
[2]; 24 variables, 20th to 50th min after single-dose application, rat
  Similarity of qEEG fingerprint to drug classes by discriminant analysis: close proximity to the dopamine reuptake inhibitor, cocaine and the dopamine releasing agent, d-amphetamine
[2]; after ip injection, rat
  Period of greatest changes in EEG patterns: 5 to 65 min
[2]; dose range 300 to 1000 mg/kg ip, rat
  EEG changes, summary over dose range: clear, dose- and time-dependent statistically significant changes
[2]; rat, ip
  Specific EEG frequencies changed: decrease the delta, theta and alpha2 EEG frequencies
[2]; single ip injection, range 100 to 1000 mg/kg, freely-moving rats
  EEG power spectrum changes, dose dependence: clear, dose-dependent changes in the EEG power spectrum
[3]; 100, 300, 600 and 1000 mg/kg ip
  Plasma concentration of (R)-3-hydroxybutyrate: clear dose-dependent increases
[3]; 100-1000 mg/kg ip, after injection
  Time at which plasma (R)-3-hydroxybutyrate had returned to control values: ≤ 1 h
[3]; 100-1000 mg/kg ip, first sample
  Time of highest elevations in plasma (R)-3-hydroxybutyrate: 30 min
[4]; 600 mg/kg ip
  Plasma concentration of acetoacetate: significantly increased
[4]; 1000 mg/kg ip
  Plasma concentration of acetoacetate: significantly increased

## Oc1cc2c(cc1O)C(c1ccccc1)CNCC2 (stereo not shown) [SKF 38393]
[1]
  EEG frequency changes of drugs enhancing dopaminergic function: decrease delta, theta and alpha2 frequencies
